What was measured:
[1] = Crystal
[2] = Molar enthalpy of transition or fusion; conditions: Crystal; Adiabatic calorimetry
[3] = molar heat capacity at constant pressure; conditions: 101.33 kPa, Liquid, Vacuum adiabatic calorimetry

CCCCn1cc[n+](C)c1.N#CN=C=[N-] [1-butyl-3-methylimidazolium dicyanamide]
Conditions	Molar enthalpy of transition or fusion [kcal/mol]	Triple point temperature [K]
[1]	–	270.83
[2]	4.254	–

[3]
Conditions	molar heat capacity at constant pressure [J/K/mol]
235.8 K	355.9
237.81 K	356.5
239.87 K	356.9
241.93 K	357.5
243.99 K	357.9
246.05 K	358.6
248.11 K	359.2
249.31 K	359.4
250.17 K	359.8
251.33 K	360.2
252.23 K	360.4
253.39 K	360.8
254.29 K	360.8
255.46 K	361.2
256.35 K	361.4
257.53 K	362
258.41 K	362
259.59 K	362.7
260.48 K	362.7
261.66 K	363.3
262.54 K	363.5
263.72 K	363.9
264.6 K	364.1
265.79 K	364.7
266.66 K	364.7
267.86 K	365.3
268.72 K	365.3
269.92 K	365.9
270.79 K	366.1
271.99 K	366.5
272.85 K	366.8
274.05 K	367.2
274.91 K	367.4
276.12 K	368
278.19 K	368.6
280.25 K	369.4
282.32 K	370
284.39 K	370.9
286.45 K	371.5
288.52 K	372.3
290.59 K	372.9
292.65 K	373.7
294.72 K	374.5
296.78 K	375.4
298.85 K	376.2
300.92 K	376.8
302.98 K	377.6
305.05 K	378.4
307.12 K	379.1
309.18 K	379.9
311.25 K	380.7
313.32 K	381.5
315.39 K	382.3
317.46 K	382.9
319.53 K	383.8
321.6 K	384.8
323.67 K	385.6
325.73 K	386.4
327.8 K	387
329.87 K	388.1
331.94 K	388.9
334.01 K	389.7
336.08 K	390.5
338.15 K	391.1
340.22 K	392
342.29 K	392.8
344.36 K	393.6
346.43 K	394.4
348.5 K	395.5
350.57 K	396.3
352.65 K	397.1
354.72 K	397.9
356.79 K	398.9
358.86 K	399.6
360.93 K	400.6
363 K	401.4
365.07 K	402.2
367.14 K	403.2

CCCCn1cc[n+](C)c1.F[B-](F)(F)F [1-butyl-3-methylimidazolium tetrafluoroborate]
[3]
Conditions	molar heat capacity at constant pressure [J/K/mol]
189.66 K	332
191.85 K	332.1
194.05 K	332.1
196.25 K	332.7
198.46 K	332.8
200.67 K	333.2
202.89 K	333.7
205.12 K	334
207.35 K	334.5
209.58 K	335
211.82 K	335.5
214.06 K	335.9
216.3 K	336.8
218.55 K	337.2
220.8 K	337.8
223.05 K	338.8
225.31 K	339.2
227.56 K	339.9
229.82 K	340.4
232.09 K	340.9
236.62 K	342.8
238.89 K	343.3
241.18 K	344.4
243.46 K	345.4
245.73 K	345.8
248.01 K	346.6
250.29 K	347.5
252.57 K	348.5
254.85 K	349
257.13 K	350.2
259.41 K	351
261.7 K	351.4
263.98 K	352.6
266.27 K	353.5
268.56 K	354.6
270.84 K	355.7
273.13 K	356.4
275.42 K	357.4
277.72 K	358.3
280.02 K	359.2
282.31 K	360.2
284.6 K	361.6
286.89 K	362.1
289.17 K	363.3
291.46 K	364.2
293.74 K	365.4
296.02 K	366.3
298.3 K	367
300.57 K	368.2
302.84 K	368.7
305.11 K	370
307.38 K	371.1
309.64 K	372.6
311.9 K	373.5
314.16 K	374.2
316.43 K	375.5
318.69 K	376.9
320.95 K	377.9
323.2 K	378.9
325.45 K	379.6
327.7 K	381.1
329.95 K	381.9
332.2 K	382.6
334.45 K	384.1
336.69 K	384.9
338.94 K	386
341.18 K	387.3
343.42 K	388.6
345.66 K	389.8
347.9 K	390.7
350.14 K	391.8
352.38 K	392.4
354.62 K	393.9
356.85 K	394.2
359.08 K	395.7
361.31 K	396.6
363.54 K	397.9
365.76 K	399
367.98 K	400.1

CCCCn1cc[n+](C)c1.O=S(=O)([O-])C(F)(F)F [1-butyl-3-methylimidazolium trifluoromethanesulfonate]
Conditions	Molar enthalpy of transition or fusion [kcal/mol]	Triple point temperature [K]
[1]	–	290.98
[2]	4.637	–

[3]
Conditions	molar heat capacity at constant pressure [J/K/mol]
292.86 K	425
294.76 K	425.9
296.65 K	427
298.54 K	427.9
300.43 K	429.1
302.38 K	429.6
304.36 K	431.1
306.35 K	431.9
308.34 K	433.1
310.33 K	434
312.32 K	435.1
314.31 K	436.3
316.3 K	437.1
318.29 K	438.3
320.27 K	439.1
322.26 K	440.6
324.25 K	441.4
326.24 K	442.6
328.22 K	443.8
330.2 K	444.6
332.19 K	445.8
334.17 K	446.9
336.15 K	447.8
338.13 K	448.9
340.11 K	449.8
342.09 K	451
344.07 K	452.1
346.05 K	453.3
348.03 K	454.3
350 K	455.5
351.98 K	456.3
353.96 K	457.8
355.94 K	458.6
357.92 K	459.5
359.89 K	460.7
361.87 K	462.1
363.84 K	463
365.81 K	464.1
367.78 K	465

Reference: the NIST ThermoML archive (doi:10.1021/je900974u)
